For the assay, the target named is T1, CaSR 7-transmembrane domain allosteric binding site (Homo sapiens, UniProt P41180).
T1 sequence (P41180 20-1078): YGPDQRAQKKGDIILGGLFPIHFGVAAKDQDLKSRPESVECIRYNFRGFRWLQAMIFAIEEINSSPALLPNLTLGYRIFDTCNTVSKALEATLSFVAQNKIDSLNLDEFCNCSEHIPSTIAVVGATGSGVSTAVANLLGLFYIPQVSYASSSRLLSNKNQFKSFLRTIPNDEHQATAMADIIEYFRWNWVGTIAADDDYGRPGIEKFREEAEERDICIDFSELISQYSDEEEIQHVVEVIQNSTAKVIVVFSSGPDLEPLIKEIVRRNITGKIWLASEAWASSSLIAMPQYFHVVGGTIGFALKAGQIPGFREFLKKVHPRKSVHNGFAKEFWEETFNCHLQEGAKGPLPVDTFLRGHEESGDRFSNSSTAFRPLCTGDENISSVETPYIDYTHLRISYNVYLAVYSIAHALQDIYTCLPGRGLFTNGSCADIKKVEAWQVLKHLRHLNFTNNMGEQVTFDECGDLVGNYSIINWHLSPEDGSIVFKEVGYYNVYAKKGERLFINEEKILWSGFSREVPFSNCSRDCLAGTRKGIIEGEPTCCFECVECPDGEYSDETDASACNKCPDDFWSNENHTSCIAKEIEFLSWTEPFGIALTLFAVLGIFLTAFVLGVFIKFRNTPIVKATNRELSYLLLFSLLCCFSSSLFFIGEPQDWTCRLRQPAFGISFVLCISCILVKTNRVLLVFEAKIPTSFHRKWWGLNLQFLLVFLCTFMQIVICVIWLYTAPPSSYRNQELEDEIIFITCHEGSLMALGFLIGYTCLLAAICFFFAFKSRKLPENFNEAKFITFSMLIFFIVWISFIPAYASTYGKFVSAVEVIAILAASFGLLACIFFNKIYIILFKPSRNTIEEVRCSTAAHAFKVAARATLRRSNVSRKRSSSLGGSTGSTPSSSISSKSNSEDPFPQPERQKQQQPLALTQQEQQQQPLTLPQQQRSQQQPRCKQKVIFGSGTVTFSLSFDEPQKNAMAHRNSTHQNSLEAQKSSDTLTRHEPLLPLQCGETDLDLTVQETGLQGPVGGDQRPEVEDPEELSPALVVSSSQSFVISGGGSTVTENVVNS
As to the kind of experiment: [3H]evocalcet radioligand displacement. The method, then:
For the seven different nanobodies with potencies in the 10 to 600 nM range, further characterization of their recognition site on the CaSR antigen was performed, since the identification of the nanobody binding-sites at the CaSR is key to understand their interaction and mode-of-action at a molecular and structural level, and will further aid in the development of second-generation nanobodies with enhanced pharmacological parameters. Nanobodies belonging to each family of the five different nanobody families are expected to interact with distinct regions of the CaSR.

Each structure is given as a SMILES string.

For the molecule `CC(C)(Cc1ccc2ccccc2c1)NC[C@@H](O)COc1cccc(Cl)c1C#N` [NPS 2143], the “Displacement of [3H]evocalcet binding” value is on record as “did displace”.

The values above are taken from patent US20220411495A1, “POSITIVE ALLOSTERIC MODULATORS OF THE CALCIUM-SENSING RECEPTOR” (VIB VZW, priority 2019, published 2022).
